# Experimental data reported in the supplement of paper PMC10307832.
# Compound: C[C@@H](Oc1cc(-c2cnn(C3CCNCC3)c2)cnc1N)c1c(Cl)ccc(F)c1Cl [Crizotinib] + CC(=O)c1c(C)c2cnc(Nc3ccc(N4CCNCC4)cn3)nc2n(C2CCCC2)c1=O [Palbociclib] (partner 0.5 µM)
# Assay: relative viability (nuclei count vs DMSO), 5 days (fraction); higher = more cells survive
# Details: first compound 1 µM
# How it was run: (§1)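 Dosing by pin tool came one day after lung cancer cell lines were seeded in 1536-well plates, using either one drug or a fixed anchor-drug dose plus five library-drug doses (not always all listed) in √10 steps. After 5 days, nuclei were counted on 4× images. Relative viability is treated-well nuclei count divided by vehicle-well nuclei count, and values are medians of duplicate plates.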
row,Cell Line,relative viability
1,NCI-H1975,0.493
2,NCI-H1993,0.426

# Compound: O=C(c1cc(Cc2n[nH]c(=O)c3ccccc23)ccc1F)N1CCN(C(=O)C2CC2)CC1 [Olaparib] + COc1cccc2cc(-c3nc([C@H]4CC[C@H](C(=O)O)CC4)n4ncnc(N)c34)[nH]c12 [OSI-027] (partner 0.5 µM)
# Assay: as above
# Details: first compound 0.08 µM
# How it was run: as §1
row,Cell Line,relative viability
1,HCC-44,0.55
2,HCC-78,0.373
3,HCC-366,0.856
4,HCC-827,0.772
5,HOP-62,0.863
6,LC-2-ad,0.926
7,LCLC-97TM1,0.525
8,LCLC-103H,0.52
9,LK-2,0.2
10,LOU-NH91,0.764
11,LU99A,0.31
12,LXF-289,0.955
13,NCI-H23,0.8
14,NCI-H322M,0.713
15,NCI-H358,0.648
16,NCI-H441,0.683
17,NCI-H460,0.677
18,NCI-H520,0.233

row,Cell Line,relative viability
1,NCI-H522,0.783
2,NCI-H647,0.701
3,NCI-H650,0.631
4,NCI-H661,0.7
5,NCI-H838,0.417
6,NCI-H1355,0.517
7,NCI-H1395,0.743
8,NCI-H1437,0.967
9,NCI-H1650,0.842
10,NCI-H1651,0.756
11,NCI-H1666,0.845
12,NCI-H1734,0.662
13,NCI-H1755,0.803
14,NCI-H1915,0.612
15,NCI-H1944,0.404
16,NCI-H1975,0.761
17,NCI-H1993,0.585

# Same assay, conditions: first compound 0.253 µM
row,Cell Line,relative viability
1,HCC-44,0.424
2,HCC-78,0.379
3,HCC-366,0.796
4,HCC-827,0.732
5,HOP-62,0.801
6,LC-2-ad,0.731
7,LCLC-97TM1,0.527
8,LCLC-103H,0.432
9,LK-2,0.193
10,LOU-NH91,0.638
11,LU99A,0.274
12,LXF-289,0.761
13,NCI-H23,0.58
14,NCI-H322M,0.523
15,NCI-H358,0.727
16,NCI-H441,0.724
17,NCI-H460,0.643
18,NCI-H520,0.246

row,Cell Line,relative viability
1,NCI-H522,0.659
2,NCI-H647,0.596
3,NCI-H650,0.498
4,NCI-H661,0.61
5,NCI-H838,0.367
6,NCI-H1355,0.399
7,NCI-H1395,0.58
8,NCI-H1437,0.871
9,NCI-H1648,0.25
10,NCI-H1650,0.515
11,NCI-H1651,0.615
12,NCI-H1666,0.791
13,NCI-H1734,0.516
14,NCI-H1755,0.64
15,NCI-H1915,0.572
16,NCI-H1944,0.362
17,NCI-H1975,0.703
18,NCI-H1993,0.502

# Same assay, conditions: first compound 2.53 µM
row,Cell Line,relative viability
1,HCC-44,0.434
2,HCC-78,0.349
3,HCC-366,0.762
4,HCC-827,0.872
5,HOP-62,0.809
6,LC-2-ad,0.856
7,LCLC-97TM1,0.587
8,LCLC-103H,0.512
9,LK-2,0.189
10,LOU-NH91,0.764
11,LU99A,0.288
12,LXF-289,0.759
13,NCI-H23,0.465
14,NCI-H322M,0.518
15,NCI-H358,0.727
16,NCI-H441,0.642
17,NCI-H460,0.434
18,NCI-H520,0.281

row,Cell Line,relative viability
1,NCI-H522,0.723
2,NCI-H647,0.688
3,NCI-H650,0.5
4,NCI-H661,0.708
5,NCI-H838,0.38
6,NCI-H1355,0.441
7,NCI-H1395,0.524
8,NCI-H1437,0.855
9,NCI-H1650,0.72
10,NCI-H1651,0.545
11,NCI-H1666,0.717
12,NCI-H1734,0.486
13,NCI-H1755,0.647
14,NCI-H1915,0.533
15,NCI-H1944,0.369
16,NCI-H1975,0.848
17,NCI-H1993,0.389

# Same assay, conditions: first compound 8 µM
row,Cell Line,relative viability
1,HCC-44,0.565
2,HCC-78,0.332
3,HCC-366,0.568
4,HCC-827,0.65
5,HOP-62,0.712
6,LC-2-ad,0.796
7,LCLC-97TM1,0.323
8,LCLC-103H,0.412
9,LK-2,0.175
10,LOU-NH91,0.729
11,LU99A,0.258
12,LXF-289,0.755
13,NCI-H23,0.367
14,NCI-H322M,0.456
15,NCI-H358,0.588
16,NCI-H441,0.581
17,NCI-H460,0.215
18,NCI-H520,0.213

row,Cell Line,relative viability
1,NCI-H522,0.642
2,NCI-H647,0.482
3,NCI-H650,0.414
4,NCI-H661,0.621
5,NCI-H838,0.405
6,NCI-H1355,0.412
7,NCI-H1395,0.536
8,NCI-H1437,0.771
9,NCI-H1648,0.223
10,NCI-H1650,0.816
11,NCI-H1651,0.445
12,NCI-H1666,0.758
13,NCI-H1734,0.374
14,NCI-H1755,0.638
15,NCI-H1915,0.374
16,NCI-H1944,0.374
17,NCI-H1975,0.758
18,NCI-H1993,0.527

# Compound: C[C@@H](Oc1cc(-c2cnn(C3CCNCC3)c2)cnc1N)c1c(Cl)ccc(F)c1Cl [Crizotinib] + Nc1nc2[nH]cc(CCc3ccc(C(=O)N[C@@H](CCC(=O)O)C(=O)O)cc3)c2c(=O)[nH]1 [Pemetrexed] (partner 0.2 µM)
# Assay: as above
# Details: first compound 0.01 µM
# How it was run: as §1
row,Cell Line,relative viability
1,HCC-44,0.603
2,HCC-78,0.88
3,HCC-366,0.166
4,HCC-827,0.268
5,HOP-62,0.347
6,LC-2-ad,0.266
7,LCLC-97TM1,0.201
8,LCLC-103H,0.493
9,LK-2,0.276
10,LOU-NH91,0.35
11,LU99A,0.165
12,LXF-289,0.807
13,NCI-H23,0.489
14,NCI-H358,0.174
15,NCI-H441,0.25
16,NCI-H460,0.0615
17,NCI-H520,0.564

row,Cell Line,relative viability
1,NCI-H522,1.04
2,NCI-H647,0.162
3,NCI-H650,1.09
4,NCI-H661,0.82
5,NCI-H838,0.214
6,NCI-H1355,0.998
7,NCI-H1395,0.91
8,NCI-H1437,0.338
9,NCI-H1650,0.308
10,NCI-H1651,0.545
11,NCI-H1666,0.826
12,NCI-H1734,0.411
13,NCI-H1755,0.373
14,NCI-H1915,0.455
15,NCI-H1944,0.499
16,NCI-H1975,0.296
17,NCI-H1993,0.57

# Same assay, conditions: first compound 0.03162 µM
row,Cell Line,relative viability
1,HCC-44,0.648
2,HCC-78,0.865
3,HCC-366,0.154
4,HCC-827,0.183
5,HOP-62,0.266
6,LC-2-ad,0.259
7,LCLC-97TM1,0.16
8,LCLC-103H,0.47
9,LK-2,0.188
10,LOU-NH91,0.368
11,LU99A,0.167
12,LXF-289,0.939
13,NCI-H23,0.591
14,NCI-H322M,0.656
15,NCI-H358,0.168
16,NCI-H441,0.265
17,NCI-H460,0.0628
18,NCI-H520,0.626

row,Cell Line,relative viability
1,NCI-H522,0.968
2,NCI-H647,0.188
3,NCI-H650,0.907
4,NCI-H661,0.939
5,NCI-H838,0.237
6,NCI-H1355,0.928
7,NCI-H1437,0.3
8,NCI-H1648,0.703
9,NCI-H1650,0.403
10,NCI-H1651,0.369
11,NCI-H1666,0.814
12,NCI-H1734,0.442
13,NCI-H1755,0.44
14,NCI-H1915,0.431
15,NCI-H1944,0.614
16,NCI-H1975,0.3
17,NCI-H1993,0.632

# Same assay, conditions: first compound 0.1 µM
row,Cell Line,relative viability
1,HCC-44,0.689
2,HCC-78,0.889
3,HCC-366,0.167
4,HCC-827,0.267
5,HOP-62,0.331
6,LC-2-ad,0.276
7,LCLC-97TM1,0.166
8,LCLC-103H,0.447
9,LK-2,0.246
10,LOU-NH91,0.383
11,LU99A,0.173
12,LXF-289,0.788
13,NCI-H23,0.567
14,NCI-H322M,0.593
15,NCI-H358,0.172
16,NCI-H441,0.292
17,NCI-H460,0.0607
18,NCI-H520,0.644

row,Cell Line,relative viability
1,NCI-H522,0.828
2,NCI-H647,0.146
3,NCI-H650,0.956
4,NCI-H661,0.854
5,NCI-H838,0.253
6,NCI-H1355,1.08
7,NCI-H1395,0.888
8,NCI-H1437,0.319
9,NCI-H1648,0.568
10,NCI-H1650,0.334
11,NCI-H1651,0.65
12,NCI-H1666,0.87
13,NCI-H1734,0.403
14,NCI-H1755,0.382
15,NCI-H1915,0.506
16,NCI-H1944,0.621
17,NCI-H1975,0.287
18,NCI-H1993,0.503

# Same assay, conditions: first compound 0.3162 µM
row,Cell Line,relative viability
1,HCC-44,0.593
2,HCC-78,0.855
3,HCC-827,0.274
4,HOP-62,0.28
5,LCLC-97TM1,0.17
6,LCLC-103H,0.461
7,LK-2,0.166
8,LOU-NH91,0.396
9,LU99A,0.142
10,LXF-289,0.736
11,NCI-H322M,0.649
12,NCI-H358,0.18
13,NCI-H441,0.246
14,NCI-H460,0.0596
15,NCI-H520,0.789
16,NCI-H522,1.04

row,Cell Line,relative viability
1,NCI-H647,0.177
2,NCI-H661,1
3,NCI-H838,0.265
4,NCI-H1355,0.976
5,NCI-H1395,0.731
6,NCI-H1437,0.314
7,NCI-H1648,0.81
8,NCI-H1650,0.37
9,NCI-H1651,0.378
10,NCI-H1666,0.808
11,NCI-H1755,0.445
12,NCI-H1915,0.455
13,NCI-H1944,0.605
14,NCI-H1975,0.301
15,NCI-H1993,0.528

# Same assay, conditions: first compound 1 µM
row,Cell Line,relative viability
1,HCC-44,0.665
2,HCC-366,0.202
3,HCC-827,0.261
4,HOP-62,0.31
5,LC-2-ad,0.302
6,LCLC-97TM1,0.192
7,LCLC-103H,0.444
8,LK-2,0.236
9,LOU-NH91,0.383
10,LU99A,0.173
11,NCI-H23,0.812
12,NCI-H322M,0.656
13,NCI-H358,0.173
14,NCI-H441,0.237
15,NCI-H460,0.0647
16,NCI-H520,0.756
17,NCI-H522,0.999

row,Cell Line,relative viability
1,NCI-H647,0.186
2,NCI-H650,0.984
3,NCI-H661,0.904
4,NCI-H838,0.24
5,NCI-H1355,1.07
6,NCI-H1395,0.88
7,NCI-H1437,0.325
8,NCI-H1648,0.675
9,NCI-H1650,0.408
10,NCI-H1651,0.535
11,NCI-H1666,0.82
12,NCI-H1734,0.395
13,NCI-H1755,0.408
14,NCI-H1915,0.482
15,NCI-H1944,0.652
16,NCI-H1975,0.291
17,NCI-H1993,0.47
